Reference: ChEMBL document CHEMBL3430912, “GSK Tres Cantos Anti-Kinetoplastid Screening (TCAKS) Data”

How the values were obtained:
Leishmania donovani [1] = assay: (§1) GSK_TCAKS: pIC50 Leishmania donovani Imaging: THP-1 Host Macrophages. Assay plates (384-well) were prepared by adding 250nL of compound to each well. For single shot assay, the final compound concentration was 5 uM. […] Automated image analysis was performed with a script developed on Acapella High Content Imaging and Analysis Software (PerkinElmer). Output: THP-1 cell count were reported for each well.; format: functional, organism-based, Homo sapiens
Trypanosoma cruzi [2] = assay: (§2) GSK_TCAKS: pIC50 Trypanosoma cruzi Imaging: Amastigotes/Cell. […] Cells were then washed once with PBS before infection. T. cruzi trypomastigotes, collected at days 5 to 8 after infection from LLC-MK2 parasite infected cultures, were allowed to swim out for 4h at 37C from a centrifuged pellet (2,500 rpm/10 min/room temperature). Trypomastigotes were then collected and counted in a CASY Cell Counter. Trypomastigotes, in supplemented DMEM, were added to H9c2 cultures in a multiplicity of infection of 1 and incubated for 18 h. Cells were washed once with PBS before incubation of the infected H9c2 monolayer with trypsin (Life-Technologies) to detach cells from the flask. Cells were counted in a CASY Cell Counter using a 150 um capillary and their density set at 5 * 10^4 cells per mL in supplemented assay DMEM. Infected H9c2 were dispensed into 384-well poly-lysine coated assay plates at 50uL per well using a Multidrop Combi dispenser. After seeding them, the plates were incubated at 37C, 5% CO2 for 72h. Cultures were then fixed and stained by addition of 50 uL of a solution containing 8% formaldehyde and 4 uM DRAQ5 DNA dye (BioStatus, UK) per well. […] Five images were collected per well for reliable statistical analysis. Automated image analysis was performed with a script developed on Acapella High Content Imaging and Analysis Software (PerkinElmer). Output: number of amastigotes per cell as infection level measurement.; format: functional, organism-based, Rattus norvegicus; settings: H9c2, 4 h
[3] = molecular target: Sterol 14-alpha demethylase (Trypanosoma cruzi (strain CL Brener), UniProt Q7Z1V1); assay: GSK_TCAKS: pIC50 CYP51 from Trypanosoma cruzi.; format: functional
Sterol 14-alpha demethylase, sequence (Q7Z1V1 whole entry): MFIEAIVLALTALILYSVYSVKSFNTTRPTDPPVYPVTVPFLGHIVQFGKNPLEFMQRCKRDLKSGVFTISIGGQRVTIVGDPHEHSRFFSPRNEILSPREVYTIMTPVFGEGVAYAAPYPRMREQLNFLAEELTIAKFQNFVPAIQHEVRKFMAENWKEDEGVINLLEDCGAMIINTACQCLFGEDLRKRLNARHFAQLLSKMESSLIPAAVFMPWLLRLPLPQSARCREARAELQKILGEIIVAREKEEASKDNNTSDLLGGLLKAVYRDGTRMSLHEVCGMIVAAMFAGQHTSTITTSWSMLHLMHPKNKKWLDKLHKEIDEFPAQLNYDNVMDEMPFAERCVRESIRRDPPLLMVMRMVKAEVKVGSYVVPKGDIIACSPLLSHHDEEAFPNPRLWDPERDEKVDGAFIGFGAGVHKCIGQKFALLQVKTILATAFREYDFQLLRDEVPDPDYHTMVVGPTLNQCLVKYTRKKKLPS

Leishmania donovani [4] = assay: as §1, with “Amastigotes/Macrophages.” for “THP-1 Host Macrophages.”, “Average number of amastigotes per macrophage” for “THP-1”, “cell” for “cell count”; format: functional, organism-based, Homo sapiens; settings: THP-1
[5] = tested on: Trypanosoma brucei brucei; assay: GSK_TCAKS: pIC50 Trypanosoma brucei viability assay using luminiscence. Assay plates (1536-well) were prepared. T. brucei cultures were harvested and counted in a CASY cell counter. A parasite suspension was prepared at a final concentration of 5 * 10^4 cells/mL in complete HMI9 medium and 6uL was dispensed to all wells containing compounds using a Multidrop Combi dispenser. 6uL of HMI9 media with 0.4% DMSO were dispensed to control columns. Plates were incubated for 24 h at 37C, 5% CO2 then tempered for 10 min at room temperature. ATP content was quantified by adding 4 uL of CellTiter-Glo Reagent (Promega) according to the manufacturer's instructions. Luminescence was measured using a ViewLux.; format: functional, organism-based; settings: Lister 427, CASY
Leishmania donovani [6] = assay: as §1, with “Infected” for “THP-1 Host”, “Percent of infected macrophage cells” for “THP-1 cell count”; format: functional, organism-based, Homo sapiens; settings: THP-1
Leishmania donovani [7] = assay: GSK_TCAKS: pIC50 Leishmania donovani viability assay using fluorescence intensity. Assay plates (1536-well) were prepared by adding 30nL per well of compound. For single shot assay, the final compound concentration was 5uM. […] Briefly, eGFP LdBOB axenic amastigotes were harvested, fixed and counted in a CASY cell counter (Roche-Applied Science). A final concentration of 1.5 * 10^5 cells per well were prepared in amastigote media containing 500 U/mL penicillin/streptomycin (Invitrogen) and 6uL was dispensed to each experimental well using a Multidrop Combi dispenser (Thermo Scientific). 6uL of assay media was dispensed to control columns used as reference for 100% compound response. Following incubation for 72 h at 37C, 5% CO2, 2 uL of resazurin was added to each well at a final concentration of 0.5 mM in phosphate buffered saline (PBS) with IGEPAL (Sigma-Aldrich), 0.05% (v/v).; format: functional, organism-based
NIH3T3 = assay: GSK_TCAKS: pIC50 NIH 3T3 cell line viability assay using luminiscence. Tissue culture surface treated assay plates (1536-well) were used. […] The 100% cells survival control was determined exposing the host-cells to a 0.5% DMSO concentration, whereas the 100% toxicity control was achieved by seeding the cells in presence of Amphotericin B at 50uM. Plates were incubated for four days at 37C, 5% CO2. The assay readout was developed by addition of 5uL of CellTiter-Glo Reagent following the manufacturer's instructions. Luminiscence was measured using a ViewLux.; format: functional, cell-based; settings: Mus musculus, NIH3T3, 96 h
Trypanosoma cruzi [8] = assay: GSK_TCAKS: pIC50 Trypanosoma cruzi viability assay using beta-GAL activity. This assay was run at single shot at 5uM compound concentration per well. The biological reagents consisted of NIH-3T3 host cells and trypomastigotes parasitic cells; both cell types were set to a 3.3 * 10^5 cells/mL dilution in assay DMEM by means of a CASY cell counter device using a 60um capillary. 6 uL of the mixture were dispensed per well (about 1 * 10^3 host-cells and 1 * 10^3 parasites) with a Multidrop Combi dispenser. […] In all wells, the percentage of DMSO never exceeded 0.5%. Plates incubated for four days at 37C, 5% CO2. The substrate used for the assay fluorescence intensity (FLINT) readout was resorufin-beta-D-galactopiranoside (Sigma-Aldrich) at 5uM per well. It was diluted in PBS supplemented with the soft detergent Igepal (Fluka).; format: functional, organism-based, Mus musculus; settings: Tulahuen, NIH3T3
Trypanosoma cruzi [9] = assay: as §2, with “H2C9” for “Trypanosoma cruzi”, “H9c2 Host Cardiomyocytes.” for “Amastigotes/Cell.”, “Number” for “number”, “H9c2 Host Cardiomyocytes nuclei to determine drug-related cytotoxicity.” for “amastigotes per cell as infection level measurement.”; format: functional, organism-based, Rattus norvegicus; settings: H9c2, 4 h
[10] = tested on: Trypanosoma brucei brucei; assay: GSK_TCAKS: pIC50 Trypanosoma brucei viability assay using fluorescence intensity. Assay plates (1536-well) were prepared by dispensing 25nL of compound solution per well using an Echo acoustic dispenser (Labcyte).; format: functional, organism-based; settings: Lister 427, 2 h
Trypanosoma cruzi [11] = assay: GSK_TCAKS: pIC50 Trypanosoma cruzi Imaging: Infected Cells. […] Cells were then washed once with PBS before infection. T. cruzi trypomastigotes, collected at days 5 to 8 after infection from LLC-MK2 parasite infected cultures, were allowed to swim out for 4h at 37C from a centrifuged pellet (2,500 rpm/10 min/room temperature). Trypomastigotes were then collected and counted in a CASY Cell Counter. Trypomastigotes, in supplemented DMEM, were added to H9c2 cultures in a multiplicity of infection of 1 and incubated for 18 h. Cells were washed once with PBS before incubation of the infected H9c2 monolayer with trypsin (Life-Technologies) to detach cells from the flask. Cells were counted in a CASY Cell Counter using a 150 um capillary and their density set at 5 * 10^4 cells per mL in supplemented assay DMEM. Infected H9c2 were dispensed into 384-well poly-lysine coated assay plates at 50uL per well using a Multidrop Combi dispenser. After seeding them, the plates were incubated at 37C, 5% CO2 for 72h. Cultures were then fixed and stained by addition of 50 uL of a solution containing 8% formaldehyde and 4 uM DRAQ5 DNA dye (BioStatus, UK) per well. […] Five images were collected per well for reliable statistical analysis. Automated image analysis was performed with a script developed on Acapella High Content Imaging and Analysis Software (PerkinElmer). Output: percentage of infected cells per well as a second infection marker.; format: functional, organism-based, Rattus norvegicus; settings: H9c2, 4 h
[12] = GSK_TCAKS: pIC50 HepG2 human cell line viability assay using luminiscence. […] Seeding density was checked to ensure that new mono-layers were not more than 50% confluent at the time of harvesting. Cell suspension was added to 500 mL of the same medium at a final density of 1.2 * 10^5 cells/mL. This cell suspension was dispensed (25 uL, 3000 cells per well) into 384-well clear-bottom plates using a Multidrop Combi dispenser. Prior to addition of the cell suspension, the screening compounds (250 nL) were pre-dispensed into the plates with an Echo liquid handler. Plates were incubated for 48 h at 37C, 5% CO2. After incubation, plates equilibrated at room temperature for 30 min before proceeding to develop the luminescent signal. The signal developer, CellTiter-Glo Reagent, was allowed to equilibrate at room temperature for 30 min and added to the plates (25uL per well) using a Multidrop Combi dispenser. Plates were left for 10 min at room temperature for stabilization and then read using a ViewLux.; format: toxicity, cell-based

SMILES	IC50 (Leishmania donovani [1]) [µM]	IC50 (Trypanosoma cruzi [2]) [µM]	IC50 [3] [µM]	IC50 (Leishmania donovani [4]) [µM]	IC50 [5] [µM]	IC50 (Leishmania donovani [6]) [µM]	IC50 (Leishmania donovani [7]) [µM]	IC50 (NIH3T3) [µM]	IC50 (Trypanosoma cruzi [8]) [µM]	IC50 (Trypanosoma cruzi [9]) [µM]	IC50 [10] [µM]	IC50 (Trypanosoma cruzi [11]) [µM]	IC50 at 48 h [12] [µM]
COc1ccc(S(=O)(=O)NC(C)C)cc1Nc1ncc(-c2cccc(F)c2)cn1	> 50.1	0.316	> 100	> 50.1	> 39.8	> 50.1	6.31	5.01	0.631	> 50.1	20	0.398	> 100
O=C(NCCc1ccccc1Cl)c1cccn1-c1cccnc1	> 50.1	0.501	0.0794	> 50.1	> 39.8	> 50.1	6.31	31.6	0.398	> 50.1	31.6	0.501	> 100
COc1ccc(S(=O)(=O)Nc2ccccc2OC)cc1NC(=O)CCCc1c[nH]c2ccccc12	> 50.1	1	> 100	> 50.1	31.6	> 50.1	25.1	> 50.1	1.58	> 50.1	12.6	1.26	> 100
Cc1nn(C2CCS(=O)(=O)C2)c(C)c1CN(C)C(=O)C=Cc1sc2ccccc2c1Cl (stereo not given)	20	0.316	0.0316	12.6	25.1	39.8	12.6	> 50.1	0.631	> 50.1	10	0.501	> 100
COc1ccc2c(Cl)c(C(=O)N3CCC3)sc2c1Cl	> 50.1	0.794	> 100	> 50.1	> 39.8	> 50.1	> 50.1	> 50.1	0.447	> 50.1	20	2.51	> 100
Cc1cc(C)nc(N2CCC(N(Cc3cccnc3)C(=O)c3cccc(C#N)c3)CC2)n1	> 50.1	0.398	0.126	> 50.1	> 39.8	> 50.1	5.01	7.94	0.316	> 50.1	> 39.8	0.316	> 100
CCN(CC)S(=O)(=O)c1ccc(C(=O)Nc2cc(C)nn2-c2nc(C)c(C)c(=O)[nH]2)cc1	3.16	0.316	> 100	> 50.1	0.316	> 50.1	0.501	> 50.1	0.631	> 50.1	0.316	1.58	> 100
COc1ccc(C(C)(C)C)cc1S(=O)(=O)n1ccnc1	> 50.1	0.2	0.00794	25.1	> 39.8	> 50.1	39.8	> 50.1	0.141	> 50.1	39.8	0.2	> 100
CCCn1c(NC(=O)Cc2ccc(Cl)cc2)nc2ccccc21	> 50.1	1.26	> 100	3.16	3.16	5.01	39.8	> 50.1	0.631	> 50.1	2	2	> 100
O=C(Nc1nc(-c2ccc(S(=O)(=O)N3CCOCC3)cc2)cs1)c1ccc([N+](=O)[O-])cc1	3.98	0.501	> 100	2.51	10	> 50.1	> 50.1	25.1	1	> 50.1	3.98	1.58	> 100
Cc1ccc2sc(NC(=O)Cn3cnc([N+](=O)[O-])n3)nc2c1	> 50.1	0.501	> 100	> 50.1	> 39.8	> 50.1	> 50.1	50.1	1.26	> 50.1	25.1	3.98	> 100
CCC(=O)Nc1ccc(C(=O)Nc2ccccc2-c2ccccc2)cc1	15.8	0.251	> 100	25.1	25.1	20	10	> 50.1	0.501	> 50.1	20	0.501	> 100
CCN(CC)S(=O)(=O)c1ccc(Cn2nc(C(=O)Nc3ccncn3)c3ccccc32)cc1	> 50.1	0.398	0.158	> 50.1	> 39.8	> 50.1	> 50.1	39.8	0.316	25.1	31.6	0.398	> 100
Cc1cccnc1CN1CCN(CCCOc2ccc(-c3ccc(C(N)=O)cc3)cc2)CC1	12.6	0.398	> 100	10	> 39.8	31.6	> 50.1	6.31	0.631	> 50.1	10	20	> 100
CC(C(=O)Nc1ccccc1F)N(C)CC(=O)Nc1cccc2ccccc12 (stereo not given)	> 50.1	0.316	15.8	> 50.1	> 39.8	> 50.1	50.1	12.6	0.398	> 50.1	25.1	0.501	> 100
